Experimental data from PubChem BioAssay (NCI).
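Growth conditions: 96-well plates. Treatment: test compound, 48 hours, 5 concentrations. Analysis: linear interpolation between bracketing concentrations; unreached endpoints set to highest concentration. TGI: total growth inhibition.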

Legend:
Assay in all cases: NCI tumour cell line growth inhibition, 48 h
SNB-78 CNS = system: SNB-78 CNS
NCI-H23 lung = system: NCI-H23 lung
NCI-H460 lung = system: NCI-H460 lung
A549 NSCLC = system: A549 NSCLC
A498 renal = system: A498 renal
CAKI-1 renal = system: CAKI-1 renal
NCI/ADR-RES ovarian = system: NCI/ADR-RES ovarian
SF-268 CNS = system: SF-268 CNS
UACC-257 melanoma = system: UACC-257 melanoma
RPMI-8226 leukemia = system: RPMI-8226 leukemia
DMS 114 small cell lung = system: DMS 114 small cell lung
SF-539 CNS = system: SF-539 CNS
P388 leukemia = system: P388 leukemia
OVCAR-5 ovarian = system: OVCAR-5 ovarian
HL-60(TB) leukemia = system: HL-60(TB) leukemia
LOX IMVI melanoma = system: LOX IMVI melanoma
IGROV1 ovarian = system: IGROV1 ovarian
NCI-H226 lung = system: NCI-H226 lung
SNB-19 CNS = system: SNB-19 CNS
SK-OV-3 ovarian = system: SK-OV-3 ovarian
SN12C renal = system: SN12C renal
SW-620 colon = system: SW-620 colon
MOLT-4 leukemia = system: MOLT-4 leukemia
SNB-75 CNS = system: SNB-75 CNS
MALME-3M melanoma = system: MALME-3M melanoma
UO-31 renal = system: UO-31 renal
DLD-1 colon = system: DLD-1 colon
OVCAR-3 ovarian = system: OVCAR-3 ovarian
K-562 leukemia = system: K-562 leukemia
UACC-62 melanoma = system: UACC-62 melanoma
SK-MEL-5 melanoma = system: SK-MEL-5 melanoma
SK-MEL-2 melanoma = system: SK-MEL-2 melanoma
KM20L2 colon = system: KM20L2 colon
OVCAR-8 ovarian = system: OVCAR-8 ovarian
OVCAR-4 ovarian = system: OVCAR-4 ovarian
MCF7 breast = system: MCF7 breast
SF-295 CNS = system: SF-295 CNS
HOP-18 NSCLC = system: HOP-18 NSCLC
HCT-15 colon = system: HCT-15 colon
P388/ADR leukemia = system: P388/ADR leukemia
COLO 205 colon = system: COLO 205 colon
HOP-92 NSCLC = system: HOP-92 NSCLC
HT29 colon = system: HT29 colon
EKVX NSCLC = system: EKVX NSCLC
CCRF-CEM leukemia = system: CCRF-CEM leukemia
NCI-H522 lung = system: NCI-H522 lung
SK-MEL-28 melanoma = system: SK-MEL-28 melanoma
HCT-116 colon = system: HCT-116 colon
SN12K1 renal = system: SN12K1 renal
HCC-2998 colon = system: HCC-2998 colon
HOP-62 NSCLC = system: HOP-62 NSCLC
U251 CNS = system: U251 CNS
RXF 393 renal = system: RXF 393 renal
KM12 colon = system: KM12 colon
DMS 273 small cell lung = system: DMS 273 small cell lung
M19-MEL melanoma = system: M19-MEL melanoma

COc1cc2c(cc1Oc1c(Oc3c(O)c(OC)cc4c3C(CC(C)C)N(C)CC4)c(OC)cc3c1C(CC(C)C)N(C)CC3)C(CC(C)C)N(C)CC2 (stereo unspecified)
TGI (SNB-78 CNS): 4.71 µM
TGI (NCI-H23 lung): 4.91 µM
TGI (NCI-H460 lung): 1.69 µM
TGI (A549 NSCLC): 6.39 µM
TGI (A498 renal): 0.304 µM
TGI (CAKI-1 renal): 4.5 µM
TGI (NCI/ADR-RES ovarian): 14.1 µM
TGI (SF-268 CNS): 8.85 µM
TGI (UACC-257 melanoma): 11.5 µM
TGI (RPMI-8226 leukemia): 10.4 µM
TGI (DMS 114 small cell lung): 6.52 µM
TGI (SF-539 CNS): 1.45 µM
TGI (P388 leukemia): 3.62 µM
TGI (OVCAR-5 ovarian): 17.7 µM
TGI (HL-60(TB) leukemia): 8.16 µM
TGI (LOX IMVI melanoma): 5.52 µM
TGI (IGROV1 ovarian): 15.1 µM
TGI (NCI-H226 lung): 2.5 µM
TGI (SNB-19 CNS): 2.18 µM
TGI (SK-OV-3 ovarian): 11.8 µM
TGI (SN12C renal): 3.53 µM
TGI (SW-620 colon): 8.28 µM
TGI (MOLT-4 leukemia): 4.05 µM
TGI (SNB-75 CNS): 3.01 µM
TGI (MALME-3M melanoma): 7.39 µM
TGI (UO-31 renal): 11.9 µM
TGI (DLD-1 colon): 14.2 µM
TGI (OVCAR-3 ovarian): 11.4 µM
TGI (K-562 leukemia): 5.65 µM
TGI (UACC-62 melanoma): 4.02 µM
TGI (SK-MEL-5 melanoma): 0.832 µM
TGI (SK-MEL-2 melanoma): 3.67 µM
TGI (KM20L2 colon): 7.12 µM
TGI (OVCAR-8 ovarian): 8.24 µM
TGI (OVCAR-4 ovarian): 8.15 µM
TGI (MCF7 breast): 8.3 µM
TGI (SF-295 CNS): 5.04 µM
TGI (HOP-18 NSCLC): 17.1 µM
TGI (HCT-15 colon): 12.9 µM
TGI (P388/ADR leukemia): 3.71 µM
TGI (COLO 205 colon): 0.837 µM
TGI (HOP-92 NSCLC): 7.87 µM
TGI (HT29 colon): 5.61 µM
TGI (EKVX NSCLC): 2.18 µM
TGI (CCRF-CEM leukemia): 6.3 µM
TGI (NCI-H522 lung): 3.58 µM
TGI (SK-MEL-28 melanoma): 13.6 µM
TGI (HCT-116 colon): 3.85 µM
TGI (SN12K1 renal): 3.79 µM
TGI (HCC-2998 colon): 5.17 µM
TGI (HOP-62 NSCLC): 3.76 µM
TGI (U251 CNS): 6.22 µM
TGI (RXF 393 renal): 3.28 µM
TGI (KM12 colon): 3.78 µM
TGI (DMS 273 small cell lung): 4.21 µM
TGI (M19-MEL melanoma): 2.58 µM
